ChEMBL document CHEMBL1201862, “PubChem BioAssay data set” (2004)
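Assay format: 96-well plates, 48-hour exposure. GI50: concentration for 50% inhibition of growth.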 Active and inactive are the calls of the source. No stated cut-off is given here; in the data, active = GI50 up to about 1.1 µM and inactive = higher.

How the values were obtained:
Assay in all cases: growth of human tumour cells (NCI), 48 h
[1] = system: NCI-H226
[2] = system: HCC 2998
[3] = system: SK-MEL-2
[4] = system: OVCAR-8
[5] = system: SN12C
[6] = system: HCT-15
[7] = system: HCT-116
[8] = system: LOX IMVI
[9] = system: UACC-257
[10] = system: NCI/ADR-RES
[11] = system: UO-31
[12] = system: OVCAR-3
[13] = system: EKVX
[14] = system: NCI-H23
[15] = system: SF-539
[16] = system: U-251
[17] = system: NCI-H460
[18] = system: CAKI-1
[19] = system: HOP-92
[20] = system: SK-MEL-5

Row | SMILES | GI50 [1] | GI50 [2] | GI50 [3] | GI50 [4] | GI50 [5] | GI50 [6] [µM] | GI50 [7] | GI50 [8] | GI50 [9] | GI50 [10] | GI50 [11] | GI50 [12] | GI50 [13] | GI50 [14] | GI50 [15] | GI50 [16] | GI50 [17] | GI50 [18] | GI50 [19] | GI50 [20]
1 | O=C1NC(c2cccc3ccccc23)Nc2ccc(O)cc21 (stereo not given) | 19.5 µM (inactive) | 27.2 µM (inactive) | 20.4 µM (inactive) | 36.9 µM (inactive) | 39.9 µM (inactive) | 11 | 32.1 µM (inactive) | 16.2 µM (inactive) | 23.4 µM (inactive) | 16 µM (inactive) | 30.2 µM (inactive) | 24.5 µM (inactive) | 42.3 µM (inactive) | 34 µM (inactive) | 33 µM (inactive) | 38.8 µM (inactive) | 28 µM (inactive) | 30.5 µM (inactive) | 35 µM (inactive) | 23.8 µM (inactive)
2 | CC1CCC(O)/C=C/C(=O)OC(C)C(O)/C=C/C(=O)O1 (stereo not given) | > 100 µM (inactive) | > 100 µM (inactive) | > 100 µM (inactive) | > 100 µM (inactive) | > 100 µM (inactive) | > 94 | > 60.5 µM (inactive) | > 100 µM (inactive) | > 100 µM (inactive) | > 100 µM (inactive) | > 100 µM (inactive) | 57.1 µM (inactive) | > 100 µM (inactive) | > 73.5 µM (inactive) | > 86.7 µM (inactive) | > 100 µM (inactive) | > 100 µM (inactive) | > 100 µM (inactive) | 52.8 µM (inactive) | > 100 µM (inactive)
3 | OCCOCn1nc(-c2ccccc2)nc1-c1cnccn1 |  | > 100 µM (inactive) |  | > 100 µM (inactive) | > 100 µM (inactive) | > 100 | > 100 µM (inactive) | > 100 µM (inactive) | > 100 µM (inactive) | > 100 µM (inactive) | > 100 µM (inactive) | > 100 µM (inactive) | > 100 µM (inactive) | > 100 µM (inactive) | > 100 µM (inactive) | > 100 µM (inactive) | > 100 µM (inactive) |  | > 100 µM (inactive) | > 100 µM (inactive)
4 | CCCCC(NC(=O)CC)C(=O)O (stereo not given) | > 100 µM (inactive) | > 31.6 µM (inactive) | > 100 µM (inactive) | > 100 µM (inactive) | > 100 µM (inactive) | > 100 | > 100 µM (inactive) | > 100 µM (inactive) | > 100 µM (inactive) | > 100 µM (inactive) | > 100 µM (inactive) | > 100 µM (inactive) | > 100 µM (inactive) | > 100 µM (inactive) | > 100 µM (inactive) | > 100 µM (inactive) | > 100 µM (inactive) | > 100 µM (inactive) | > 100 µM (inactive) | > 100 µM (inactive)
5 | Cn1ccc(C(=O)NCCN(CCNC(=O)c2ccn(C)c(=O)c2O)CCNC(=O)c2ccn(C)c(=O)c2O)c(O)c1=O | > 100 µM (inactive) | > 100 µM (inactive) | > 100 µM (inactive) | > 100 µM (inactive) | > 100 µM (inactive) | > 100 |  |  | > 100 µM (inactive) | > 100 µM (inactive) | > 100 µM (inactive) | > 100 µM (inactive) |  | > 100 µM (inactive) | > 100 µM (inactive) | > 100 µM (inactive) | > 100 µM (inactive) | > 100 µM (inactive) | > 100 µM (inactive) | > 100 µM (inactive)
6 | C#CCn1c(=O)c(C#N)c(O)c2cc3ccccc3nc21 | > 84.1 µM (inactive) | > 100 µM (inactive) | > 100 µM (inactive) | > 100 µM (inactive) | > 100 µM (inactive) | > 100 | > 100 µM (inactive) | > 100 µM (inactive) | > 100 µM (inactive) | > 100 µM (inactive) | > 100 µM (inactive) | > 100 µM (inactive) | > 100 µM (inactive) | > 100 µM (inactive) |  |  | > 100 µM (inactive) | > 100 µM (inactive) | > 100 µM (inactive) | > 100 µM (inactive)
7 | O=C(NC1C(O)C(O)C(CO)OC1n1cc(F)c(=O)[nH]c1=O)OCc1ccccc1 (stereo not given) | > 100 µM (inactive) | > 100 µM (inactive) | > 100 µM (inactive) |  | > 100 µM (inactive) | > 100 | > 100 µM (inactive) | > 100 µM (inactive) | > 100 µM (inactive) |  |  |  |  | > 100 µM (inactive) |  | > 100 µM (inactive) | > 100 µM (inactive) | > 100 µM (inactive) | > 100 µM (inactive) | > 100 µM (inactive)
8 | NCCCCN(CCCN)Cc1ccccc1 | > 100 µM (inactive) | > 100 µM (inactive) | > 100 µM (inactive) | > 100 µM (inactive) | > 100 µM (inactive) | > 100 | > 100 µM (inactive) |  | > 100 µM (inactive) | > 100 µM (inactive) | > 100 µM (inactive) | > 100 µM (inactive) | > 100 µM (inactive) | > 100 µM (inactive) | > 100 µM (inactive) | > 100 µM (inactive) | > 100 µM (inactive) | > 100 µM (inactive) | > 100 µM (inactive) | > 100 µM (inactive)
